Experiments:
S. Epidermidis = experiment: Selective anti-bacterial test, count of germs after shaking culture with sample; type: cell-based; conditions: for S. Epidermidis (%) count of germs: count of germs in control group without sample defined as 100%, shaking culture at 32° C. for one day; for change in the count of S. Epidermidis (in words): summary of Table 1
Method: (§1) Each sample was added to an aqueous solution of 1% peptone and sterilized. 20 μl/ml of a test germ solution was injected into the sample-containing sterilized aqueous solution of peptone and then subjected to shaking culture at 32° C. for one day. The test germs selected were P. acnes known as present in the skin and harmful to the skin and S. Epidermidis known as relatively harmless to the skin. The solution after the shaking culture was diluted to 1/100 with normal diluting water. 0.1 ml of the diluted solution was placed on a Petri dish and then […]. To the diluted solution was poured TS agar cooled down to about 50° C. The Petri dish hardened with the TS agar was subjected to anaerobic culture at 35° C. for one day to measure the count of the germs. The P. acnes group was subjected to anaerobic culture at 35° C. for one day and then diluted to 1/100 with normal diluting water. 0.1 ml of the diluted solution was placed on a Petri dish, hardened with BHI agar, and subjected to anaerobic culture at 35° C. for 3 days to count the germs. As comparative groups, theanine and maltose were used for the testing. The count of germs in the control group without containing the sample was defined as 100%.

P. acnes = experiment: as above; type: cell-based, Propionibacterium acnes; conditions: for P. acnes (%) count of germs: count of germs in control group without sample defined as 100%, shaking culture at 32° C. for one day; for change in the count of P. acnes (in words): summary of Table 1
Method: as §1

[1] = Primary skin irritation test (closed patch test); type: in vivo, human; conditions: for Extent of Skin Irritation: average score on scale 0 (None) to 4 (Extreme), aqueous solution, closed patch on lower arm, 20 subjects, after one day; for safety to the skin (in words): summary of Table 3
From the text: An aqueous solution of each theanine derivative of examples 1, 2 and 3 was applied on the lower part of the arm of 20 healthy male and female subjects according to the closed patch test method. The arm was covered with a plastic cap to block external stimuli. All numeral designations in Table 3 are averages of the irritations calculated according to the evaluation method of Table 2. [table]

Structure (SMILES) | S. Epidermidis (%) count of germs (S. Epidermidis) [%] | P. acnes (%) count of germs (P. acnes) [%] | change in the count of S. Epidermidis (in words) (S. Epidermidis) | change in the count of P. acnes (in words) (P. acnes) | Extent of Skin Irritation [1] | safety to the skin (in words) [1]
OC[C@H]1O[C@H](O[C@H]2[C@H](O)[C@@H](O)C(O)O[C@@H]2CO)[C@H](O)[C@@H](O)[C@@H]1O (mixture of isomers) [Maltose, maltose, reference compound] | 89 | 110 | – | – | – | –
CCNC(=O)CC[C@H](NCC1(O)OC[C@@H](O)C(O[C@H]2O[C@H](CO)[C@@H](O)[C@H](O)[C@H]2O)[C@@H]1O)C(=O)O (stereo partly shown) [Example 1, Maltulosyl Theanine] | 83 | 9 | no significant change | reduced count | 0.1 | safe to the skin
CCNC(=O)CC[C@H](NCC1(O)OC[C@@H](O)C(O[C@H]2O[C@H](CO)[C@@H](O)[C@H](O)[C@H]2O)[C@@H]1O)C(=O)OC (stereo partly shown) [Example 2, Maltulosyl Theanine Methyl Ester] | 93 | 27 | no significant change | reduced count | 0.2 | safe to the skin
CCN(CC)C(=O)CC[C@H](NCC1(O)OC[C@@H](O)C(O[C@H]2O[C@H](CO)[C@@H](O)[C@H](O)[C@H]2O)[C@@H]1O)C(=O)O (stereo partly shown) [Example 3, Maltulosyl N-Ethyl Theanine] | 86 | 15 | no significant change | reduced count | 0.1 | safe to the skin
CCNC(=O)CC[C@H](N)C(=O)O [Theanine, theanine] | 98 | 50 | – | – | – | –

Reference: US8557793B2, “Theanine derivative, preparation method thereof, and use thereof for alleviating acne” (Amorepacific Corporation, priority 2010, dated 2013)
